Values quoted from earlier work in patent publication US20120263806A1, “Uses of North American Ginseng Fractions for Treating Leukemia” (priority 2007, published 2012).

Key:
[1] = tested on: Adriamycin (ADM)-resistant P388 leukemia cells (P388/ADM)
[2] = tested on: telomerase activity of K562 cells; conditions: at proper concentrations and exposure time
[3] = tested on: NF-kappaβ

SMILES | Cytotoxicity of the anti-cancer drugs (DAU, VBL) in P388/ADM cells [1] | further results
CC(C)=CCC[C@](C)(O)[C@H]1CC[C@]2(C)[C@@H]1[C@H](O)C[C@@H]1[C@@]3(C)CC[C@H](O)C(C)(C)[C@@H]3[C@@H](O)C[C@]12C [20(8) protopanaxatriol] | greatly enhanced | –
O=P1(N(CCCl)CCCl)NCCCO1 (stereo not shown) [CTX, cyclophosphamide] | – | Telomerase activity of K562 cells [2]: completely inhibit
CC(C)=CC/C=C(/C)[C@H]1CC[C@]2(C)[C@@H]1[C@H](O)C[C@@H]1[C@@]3(C)CC[C@H](O)C(C)(C)[C@@H]3[C@@H](O)C[C@]12C [Quasipanaxatriol] | greatly enhanced | Resistance indices (ratios of IC50 values for P388/ADM and P388 parental cells) for DAU and VBL ([1]; 50 μM): decreased significantly
CC(C)=CCC[C@](C)(O)[C@H]1CC[C@]2(C)[C@@H]1[C@H](O)C[C@@H]1[C@@]3(C)CC[C@H](O[C@@H]4O[C@H](CO)[C@@H](O)[C@H](O)[C@H]4O[C@@H]4O[C@H](CO)[C@@H](O)[C@H](O)[C@H]4O)C(C)(C)[C@@H]3CC[C@]12C [Rg(3)] | – | TPA-induced activation of NF-kappaβ in HL-60 cells [3]: inhibited
CC(C)=CCC[C@](C)(O[C@@H]1O[C@H](CO)[C@@H](O)[C@H](O)[C@H]1O)[C@H]1CC[C@]2(C)[C@@H]1[C@H](O)C[C@@H]1[C@@]3(C)CC[C@H](O)C(C)(C)[C@@H]3CC[C@]12C [compound K] | greatly enhanced | –
CC(C)=CCC[C@](C)(O)[C@H]1CC[C@]2(C)[C@@H]1[C@H](O)C[C@@H]1[C@@]3(C)CC[C@H](O[C@@H]4O[C@H](CO)[C@@H](O)[C@H](O)[C@H]4O)C(C)(C)[C@@H]3CC[C@]12C [ginsenoside Rh2] | greatly enhanced | –
